# Assay results as given in article PMC10535864, “Novel Aminopyrimidine-2,4-diones, 2-Thiopyrimidine-4-ones, and 6-Arylpteridines as Dual-Target Inhibitors of BRD4/PLK1: Design, Synthesis, Cytotoxicity, and Computational Studies” (Pharmaceuticals, 2023).
# Several values for one entry are separate records, joined by “and”; a condition that tells them apart may be missing. Equal entries are not always repeated.
# Tests used:
# Format in all cases: cell-based
# [1] = test system: BAX gene in MDA-MB-231 cells; experiment: RT-PCR gene expression, BAX; conditions: 48 h treatment, control = 1
# Experimental: (§1) As well, there was an apparent increase in caspase-3, showing 3.9-fold more expression than in control cells.
# (§2) Fluorometric analysis was used to gauge the level of these genes’ expression. The procedure for the used kit was carried out in accordance with the manufacturer’s instructions, which are detailed in the Supplementary file. […]
# (§3) […] at pH 7.4). The flow cytometer was then used to examine the cells […]
# (§4) 1.4.Estimation of apoptotic and anti-apoptotic gene markers […]
# (§5) such as Bax and caspase-3, as well as anti-apoptotic genes such as Bcl-2, was studied using the BIORAD iScriptTM One-Step RT-PCR kit with SYBR® Green. MDA-MB-231 cells were cultured before being treated for 48 hours […]
# (§6) Fluorometric analysis was used to gauge the level of these genes' expression. The procedure for the used kit was carried out in accordance with the manufacturer's instructions, which are detailed as follows:
# (§7) 1.4.1. RNA isolation and reverse transcription m RNA isolation iscarried out using an RNeasy extraction kit,up to 1 x 10^7 cells, depending on the cell line. Cells are disrupted in RNeasy Lysis Buffer (RLT buffer), homogenized, then ethanol is added to the lysate, creating conditions that promote selective binding of RNA to the RNeasy membrane. […]
# [2] = test system: Bcl-2 gene in MDA-MB-231 cells; experiment: RT-PCR gene expression, Bcl-2; conditions: 48 h treatment, control = 1
# Experimental: as §1, §2, §3, §4, §5, §6, §7
# [3] = test system: MDA-MB-231 cells; experiment: Apoptosis screening, annexin V-FITC/PI flow cytometry; conditions: compared to non-treated control MDA-MB-231 cells
# Description: (§8) The results are indicated as a dot plot graph with four quadrant images (Figure 5B). […] However, both compounds also raised the necrotic percent by 1.8- and 2.8-fold, respectively, compared to non-treated cells. Overall, these findings implied that compound 7 could exert anticancer activity by producing cell cycle arrest at the G2/M phase and inducing apoptosis.
# (§9) An Epics XL-MCL™ Flow Cytometer and Flowing software 2012 were used to count and analyze stained cells. The Supplementary file contains detailed descriptions of the flow cytometric analysis of cell-cycle distribution and cellular apoptosis. […]
# (§10) 1.3.Cell cycle and apoptosis screening […]
# (§11) investigated using an Ab-139418 propidium iodide flow cytometry kit and an Annexin-V assay and biparametric cytofluorimetric analysis, respectively, as instructed by the manufacturer. IC50s of both 7 and […]
# Cytometer and Flowing software were used to count and analyze stained cells. The Supplementary file contains detailed descriptions of the flow cytometric analysis of cell-cycle distribution and cellular apoptosis. […]
# 1.3.2. Apoptosis screening […]
# plate received 1 X 105 conc. breast cancer (MDA-MB-231) cells that were then incubated for 24 hours. The cells […]
# with PBS, and stained for 15 min at room temperature in the dark with annexin V-FITC and PI in binding buffer (10 […]
# µM HEPES, 140 µM NaCl, and 2.5 µM CaCl2 at pH 7.4). […]
# high-quality RNA iseluted in RNase-free water.
# 1.4.2. Master mix preparation
# All the following reagents were mixed together to give a totalvolume (50 μL). 2X SYBR® Green RT-PCR reaction mixture (25 μL), forward primer (10 μM) (1.5 μL), reverse primer (10 μM) (1.5 μL), nuclease-free H2O (11 μL), RNA template (1 pg to 100 ng totalRNA) (10 μL) and iScript reverse transcriptase for One-Step RT-PCR (1 μL).
# 1.4.3. Amplification protocol
# Incubate complete reaction mixture in a real-time thermal detection system (Rotorgene) as follows: cDNA synthesis:
# 10 min at 50 °C, iScript reverse transcriptase inactivation: 5 min at 95 °C, polymerase chain reaction (PCR) cycling and detection (30–45 cycles): 10 s at 95 °C and 30 s at 55 °C to 60 °C (data collection step) and melt curve analysis:
# 1 min at95 °C and 1 min at55 °C and 10 s at55 °C (80 cycles, increasing each by 0.5 °C each cycle).
# [4] = test system: MDA-MB-231 cells; experiment: Cell cycle analysis, propidium iodide flow cytometry; conditions: treated at IC50 concentration, 48 h
# Description: as §8, §9, §10, §11
# Cytometer and Flowing software were used to count and analyze stained cells. The Supplementary file contains detailed descriptions of the flow cytometric analysis of cell-cycle distribution and cellular apoptosis.
# 1.3.1. Cell cycle analysis […]
# a six-well plate containing MDA-MB-231 breast cancer cells was seeded with 1 X 10^5 cells per well and then […]
# Following that, cells were gathered and fixed in ice-cold 70% ethanol at 4 °C for 12 hours. The cells were then rinsed with cold Phosphate Buffer Saline (PBS) and incubated for 30 minutes at 37°C in 0.5 mL of PBS after the ethanol was removed. Propidium iodide was used to stain the cells for 30 min while they were in the dark. DNA content was determined using a flow cytometer. […]
# [5] = test system: caspase-3 gene in MDA-MB-231 cells; experiment: RT-PCR gene expression, caspase-3; conditions: 48 h treatment, control = 1
# Experimental: as §1, §2, §3, §4, §5, §6, §7
structure (smiles),measurement,setting,value
"Cn1c(SCC(=O)c2ccccc2)nc(=O)c(/N=C(/CBr)c2ccccc2)c1N [Compound 7, (E)-6-Amino-5-((2-bromo-1-phenylethylidene)amino)-1-methyl-2-((2-oxo-2-phenylethyl)thio)pyrimidin-4(1H)-one]",Gene expression BAX (apoptotic gene),[1],7.3 fold and 7.325 fold
same,Gene expression Bcl-2 (anti-apoptotic gene),[2],0.30 fold and 0.301 fold
same,increase in early apoptosis,[3],58.8 fold
same,increase in total apoptosis,[3],19.3 fold
same,rise of necrotic percent,[3],1.8 fold
same,DNA content % at cell cycle phase %G2/M,[4]; control 9.19%,22.36%
same,DNA content % at cell cycle phase %S,[4]; control 29.53%,28.02%
same,DNA content % at cell cycle phase %G0/G1,[4]; control 61.28%,49.62%
same,Gene expression Caspase-3 (apoptotic gene),[5],3.9 fold and 3.904 fold
